ChEMBL document CHEMBL5113385, “Natural products and synthetic analogues against HIV: A perspective to develop new potential anti-HIV drugs” (Eur J Med Chem, 2022)

Tests used:
[1] = test system: Human immunodeficiency virus 1; experiment: Antiviral activity against HIV-1 infected in human C8166 cells assessed as reduction in virus-induced cytopathic effect by MTT assay; format: functional, organism-based; settings: Human immunodeficiency virus 1, C8166
[2] = test system: Human immunodeficiency virus 1; experiment: Antiviral activity against HIV-1 assessed as viral growth inhibition; format: functional, organism-based
[3] = molecular target: T1, Human immunodeficiency virus type 1 reverse transcriptase (Human immunodeficiency virus 1, UniProt Q72547); experiment: Inhibition of HIV-1 LTR reverse transcriptase infected in human CEM cells using RNA template incubated for 1 hr by RT-PCR based cell-free assay
C8166 = experiment: Cytotoxicity against human C8166 cells assessed as reduction in cell viability by MTT assay; format: functional
[4] = test system: Human immunodeficiency virus 1; experiment: Antiviral activity against HIV-1 NL4-3 infected in human MT4 cells assessed as reduction in viral replication incubated for 48 hrs followed by addition of fresh medium containing compound measured after 2 days by ELISA; format: functional, organism-based; settings: Human immunodeficiency virus 1, NL4-3, MT4, 48 h
[5] = test system: Human immunodeficiency virus 1; experiment: Antiviral activity against HIV-1 infected in human CEM-GFP cells assessed as inhibition of viral replication incubated for 68 hrs by MTT assay; format: functional, organism-based; settings: Human immunodeficiency virus 1, CEM-GFP
[6] = molecular target: T1, Human immunodeficiency virus type 1 reverse transcriptase; experiment: Inhibition of HIV-1 reverse transcriptase preincubated for 45 mins followed by substrate addition by immunoassay
[7] = molecular target: Human immunodeficiency virus type 1 integrase (Human immunodeficiency virus 1, UniProt Q7ZJM1); experiment: Inhibition of recombinant HIV-1 subtype C integrase using double-stranded FITC-labelled target DNA as substrate pre-incubated for 45 mins followed by substrate addition measured after 60 mins by strand transfer inhibition assay
[8] = test system: Human immunodeficiency virus 1; experiment: Antiviral activity against HIV-1 MC99 harboring deltaTat/Rev infected in human 1A2 cells assessed as reduction in syncytium formation preincubated for 1 hr followed by virus infection measured after 3 days by inverted microscopy; format: functional, organism-based; settings: Human immunodeficiency virus 1, MC99, 1A2
[9] = Selectivity index, ratio of IC50 for human 1A2 cells to EC50 for HIV-1 MC99 harboring deltaTat/Rev infected in human 1A2 cells; format: toxicity, cell-based; settings: read-out: Ratio IC50/EC50
[10] = test system: Human immunodeficiency virus 1; experiment: Antiviral activity against HIV-1 IIIB infected in human MT4 cells assessed as reduction in cytopathic effect measured after 5 days by Cell Titer Glo assay; format: functional, organism-based; settings: Human immunodeficiency virus 1, IIIB, MT4, 120 h
[11] = molecular target: Human immunodeficiency virus type 1 protease (Human immunodeficiency virus 1) (UniProt Q72874); experiment: Inhibition of HIV-1 protease relative to control; settings: concentration not given here
[12] = test system: Human immunodeficiency virus; experiment: Antiviral activity against HIV infected in human PBMC assessed as inhibition of viral infection at MOI of 0.5 incubated for 48 hrs followed by removal of infected supernatant and subsequent addition of supernatant to human LC-5 cells expressing DsRed1 measured after 72 hrs by EASY-HIT assay; format: functional, organism-based; settings: Human immunodeficiency virus 1, PBMC
[13] = molecular target: T1, Human immunodeficiency virus type 1 reverse transcriptase; experiment: Inhibition of HIV-1 reverse transcriptase using ABTS as substrate and RNA template primed with oligo(dT)12-18 in presence of digoxigenin/biotin-labeled nucleotides by ELISA
[14] = test system: Human immunodeficiency virus 1; experiment: Antiviral activity against HIV-1 infected in PBMC (unknown origin) assessed as viral growth inhibition; format: functional, organism-based; settings: Human immunodeficiency virus 1, PBMC
[15] = molecular target: Human immunodeficiency virus type 1 reverse transcriptase (Human immunodeficiency virus 1) (UniProt Q72547); experiment: Displacement of [3H]TTP/polyA from HIV-1 reverse transcriptase at 200 ug/ml relative to control; settings: dose 200.0 µg/ml
[16] = test system: Human immunodeficiency virus 1; experiment: Antiviral activity against HIV-1 NL4-3 infected in human TZM-bl cells assessed as viral growth inhibition by luciferase assay; format: functional, organism-based; settings: Human immunodeficiency virus 1, NL4-3, TZM-bl
[17] = molecular target: Human immunodeficiency virus type 1 reverse transcriptase (Human immunodeficiency virus 1) (UniProt Q72547); experiment: Inhibition of HIV-1 reverse transcriptase using […] and oligo d(T)16 as primer at 200 ug/ml incubated for 1 hr by PicoGreen DNA fluorescence assay relative to control; settings: dose 200.0 µg/ml
[18] = molecular target: Human immunodeficiency virus type 1 reverse transcriptase (Human immunodeficiency virus 1) (UniProt Q72547); experiment: Inhibition of HIV-1 reverse transcriptase at 200 ug/ml using poly(A) ribonucleotide as template and oligo d(T)16 as primer incubated for 1 hr by PicoGreen DNA fluorescence assay relative to control; settings: dose 200.0 µg/ml
[19] = molecular target: Human immunodeficiency virus type 1 reverse transcriptase (Human immunodeficiency virus 1) (UniProt Q72547); experiment: Inhibition of recombinant HIV-1 reverse transcriptase at 200 ug/ml by ELISA relative to control; settings: dose 200.0 µg/ml
[20] = Inhibition of wild-type HIV-1 BH10 reverse transcriptase-associated RNase H expressed in Escherichia coli using [gamma-32P]ATP-labeled 31Trna/21P as template/primer preincubated for 5 mins followed by template/primer addition by PAGE analysis; set-up: species or system Human immunodeficiency virus 1
[21] = molecular target: T1, Human immunodeficiency virus type 1 reverse transcriptase; experiment: Inhibition of recombinant HIV-1 reverse transcriptase using ABTS as substrate incubated for 1 hr by ELISA
[22] = molecular target: T1, Human immunodeficiency virus type 1 reverse transcriptase; experiment: Inhibition of wild-type HIV-1 reverse transcriptase by Picogreen assay

Chain of Human immunodeficiency virus type 1 integrase (Q7ZJM1 whole entry): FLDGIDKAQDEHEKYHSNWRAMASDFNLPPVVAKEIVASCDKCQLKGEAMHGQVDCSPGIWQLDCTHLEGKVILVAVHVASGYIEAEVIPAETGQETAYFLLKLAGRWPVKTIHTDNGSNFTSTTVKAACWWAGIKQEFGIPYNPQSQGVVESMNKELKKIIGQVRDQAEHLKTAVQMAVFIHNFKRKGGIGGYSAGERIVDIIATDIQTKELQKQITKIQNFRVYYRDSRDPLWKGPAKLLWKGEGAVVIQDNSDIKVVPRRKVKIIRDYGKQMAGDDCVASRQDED

C=CC(CO)[C@@H]1C[C@H]2c3[nH]c4ccccc4c3CCN2C(=O)[C@@H]1CO (stereo partly drawn)
EC50 [1]: 12200 nM

CCOc1ccc(S(=O)(=O)N2CCN(c3cc4c(cc3F)c(=O)c(C(=O)O)cn4CC)CC2)cc1
IC50 [2]: 80 nM

C#CCOCc1cn(C2CCON2C(=O)OCc2ccccc2)c(=O)[nH]c1=O (stereo not drawn)
IC50 [3]: 50 nM

C=CC(C)(C)c1cc2cc3c(cc2oc1=O)O[C@H](C(C)(C)O)[C@H]3O
CC50 (C8166): > 200000 nM

C=C(C)[C@]12C[C@@H](COC(C)=O)[C@@]34OC5(O[C@@H]1[C@@H]3[C@@H]1O[C@]1(CO)[C@@H](O)[C@@]1(O)[C@H]4[C@H]([C@H](C)[C@@H]1C(=O)c1ccccc1)[C@H](C)C[C@H](C(=O)c1ccccc1)[C@H](OC(C)=O)[C@@H](C(=O)c1ccccc1)CC[C@H]5O)O2
IC50 [4]: ≤ 0.25 nM

Cc1cc(=O)c2ccc(N=C=S)cc2o1
IC50 [5]: 1000 nM

CCCCC/C=C\C=C/O[C@@]12[C@@H]([C@H]3OCO[C@@]3(C(C)=O)[C@H](OC(C)=O)[C@H]1C)[C@@H]1O[C@]1(CO)[C@@H](O)[C@]1(O)C(=O)C(C)=C[C@H]12
IC50 [4]: 0.9 nM

O=C1CSC(c2ccc(F)cc2)N1c1nc2c(Cl)cccc2s1 (stereo not drawn)
IC50 [6]: < 1 nM

COc1cc2c(c(O)c1C)Oc1c(C=O)c(O)cc(C)c1C(=O)O2
IC50 [7]: 4650 nM

O=C(OCc1ccccc1)N1OCCC1n1cc(COCc2ccccc2)c(=O)[nH]c1=O (stereo not drawn)
IC50 [3]: 1000 nM

CCCCC/C=C/C=C/O[C@@]12[C@@H]([C@H]3OCO[C@@]3(C(C)=O)[C@H](OC(=O)CCCCC)[C@H]1C)[C@@H]1O[C@]1(CO)[C@@H](O)[C@]1(O)C(=O)C(C)=C[C@H]12
IC50 [4]: 0.9 nM

COc1cc2c(c(O)c1OC)C(=O)C[C@@H](c1cc(O)c(OC)c(O)c1)O2
EC50 [8]: < 8020 nM
selectivity ratio [9]: 1.12

O=C1CSC(c2ccc(O)cc2)N1c1nc2ccc(Cl)cc2s1 (stereo not drawn)
IC50 [6]: 300 nM

CC1=C(C(=O)OCc2ccccc2)C(c2ccc(Cl)c([N+](=O)[O-])c2)NC(=O)N1 (stereo not drawn)
IC50 [2]: 15 µg/mL

COc1cc(F)c(Nc2cc(N)nc(Nc3ccc(C#N)cc3)n2)c(F)c1
IC50 [10]: 2 nM

COc1cc2cc3c(cc2oc1=O)OC(C)(C)CC3
CC50 (C8166): > 200000 nM

COc1cc([C@@H]2CC(=O)c3c(cc(OC)c(OC)c3O)O2)cc(OC)c1OC
EC50 [8]: 172000 nM
selectivity ratio [9]: 1.12

CC(=O)[C@@H]1Cc2cc3ccc(=O)oc3cc2O1
CC50 (C8166): > 200000 nM

C=C(C)[C@@H]1CC[C@@H]2[C@]3(CC[C@]4(C)/C(=C(\C)CC/C=C(/C)C(=O)O)CC[C@@]24C)C[C@]13CCC(=O)O
inhibition [11]: 85%

COc1oc(C2C/C(=C/C(C)=C/c3ccc(C(F)(F)F)cc3)CO2)c(C)c(=O)c1C (stereo not drawn)
IC50 [12]: < 45 nM

COC(=O)/C=C\c1c(-c2cccs2)[nH]c2ccccc12
IC50 [13]: 9.38 nM

CC(=O)N[C@H]1[C@H](O[C@H]2CC[C@]3(C)[C@H]4CC=C5[C@@H]6CC(C)(C)CC[C@]6(C(=O)O)CC[C@@]5(C)[C@]4(C)CC[C@H]3C2(C)C)O[C@H](CO)[C@@H](O)[C@@H]1O
IC50 [7]: 18300 nM

COc1cc(O)c(-c2c(C)cc(O)c3c2Cc2cccc(O)c2C3=O)c(O)c1C(C)=O
EC50 [14]: 4300 nM

C=C(CO)[C@@H]1Cc2cc3ccc(=O)oc3cc2O1
CC50 (C8166): > 200000 nM

C=CC(C)(C)c1cc2cc3c(c(CC=C(C)C)c2oc1=O)O[C@H](C(C)(C)O)C3
CC50 (C8166): > 200000 nM

O=c1cc(-c2ccc(O)cc2)oc2c([C@@H]3O[C@H](CO)[C@@H](O)[C@H](O)[C@H]3O)c(O)cc(O)c12
inhibition [15]: 56.9%

CC(C)(O)C(=O)Cc1cc2ccc(=O)oc2cc1O [PEUCEDANONE]
CC50 (C8166): > 200000 nM

CCCCCOC(=O)C[C@H](NP(=O)(CO[C@@H](CF)Cn1ccc2c(=O)[nH]c(N)nc21)Oc1ccccc1)C(=O)OCCCCC (stereo partly drawn)
IC50 [16]: 2000 nM

CC(C)=CCc1cc2ccc(=O)oc2c(CC=C(C)C)c1O
CC50 (C8166): > 200000 nM

C=CC(C)(C)c1cc2cc(C[C@@H](O)C(C)(C)O)c(O)cc2oc1=O
CC50 (C8166): > 200000 nM

COC(=O)/C=C/c1c(-c2cccs2)[nH]c2ccccc12
IC50 [13]: 720 nM

COc1cc(OC)c([C@@H]2CC[C@H]3C[C@@H](c4cc(OC)c(OC)cc4OC)Oc4cc(OC)c(O)c2c43)cc1OC
selectivity ratio [9]: 3.7
inhibition [17]: 41.4%
inhibition [18]: 41.4%

CC(C)=CCc1cc(/C=C/C(=O)O)cc(CC=C(C)C)c1
inhibition [19]: 41.6%

C=CCOCc1cn(C2CCON2C(=O)OCc2ccccc2)c(=O)[nH]c1=O (stereo not drawn)
IC50 [3]: 10 nM

CC1(C)Oc2cc3oc(=O)ccc3cc2[C@@H](O)[C@@H]1O
CC50 (C8166): > 200000 nM

C=CC(CO)[C@@H]1C[C@H]2c3[nH]c4ccccc4c3CCN2C(=O)[C@H]1CO (stereo partly drawn)
EC50 [1]: 12200 nM

CCCCCOC(=O)C[C@H](NP(=O)(CO[C@@H](CF)Cn1ccc2c(=O)[nH]c(N)nc21)N[C@@H](CC(=O)OCCCCC)C(=O)OCCCCC)C(=O)OCCCCC
IC50 [16]: 2000 nM

CCn1cc(C(=O)O)c(=O)c2cc(F)c(N3CCN(S(=O)(=O)c4ccc(OC)cc4)CC3)cc21
IC50 [2]: 50 nM

C=C(C)[C@@H]1CC[C@@H]2[C@]3(CC[C@]4(C)[C@@H]([C@H](C)CC/C=C(/C)C(=O)O)CC[C@@]24C)C[C@]13CCC(=O)O
inhibition [11]: 89.2%

C=C(C)[C@]12C[C@@H](COC(C)=O)[C@@]34OC5(O[C@@H]1[C@@H]3[C@@H]1O[C@]1(CO)[C@@H](O)[C@@]1(O)[C@H]4[C@H]([C@H](C)[C@@H]1C(=O)c1ccccc1)[C@H](C)C[C@H](C(=O)c1ccccc1)[C@H](C(=O)c1ccccc1)CCC[C@H]5O)O2
IC50 [4]: ≤ 0.25 nM

O=C1C[C@@H](c2ccc(O)cc2)Oc2cc(O)cc(O)c21
inhibition [19]: 44.2%

O=c1cc(-c2ccc(O)c(O)c2)oc2c([C@@H]3O[C@H](CO)[C@@H](O)[C@H](O)[C@H]3O)c(O)cc(O)c12
inhibition [15]: 52%

CC1=C(C(=O)OCc2ccccc2)C(c2cccc(C(F)(F)F)c2)NC(=O)N1 (stereo not drawn)
IC50 [2]: 15 µg/mL

COc1cc(F)c(C(=O)c2cc(N)nc(Nc3ccc(C#N)cc3)n2)c(F)c1
IC50 [10]: 4.2 nM

Nc1ccc(S(=O)(=O)N2CCN(C(=O)c3cc(O)c(O)c(O)c3)CC2)cc1
IC50 [20]: 720 nM

CC1(C)CCc2cc3cc(O)c(=O)oc3cc2O1
CC50 (C8166): > 200000 nM

COc1cc(-c2oc3cc(O)cc(O)c3c(=O)c2O)ccc1O
inhibition [19]: 57%

CO[C@H](Cc1cc2ccc(=O)oc2cc1O)C(C)(C)O
CC50 (C8166): > 200000 nM

COc1cc(F)c(Oc2cc(N)nc(Nc3ccc(C#N)cc3)n2)c(F)c1
IC50 [10]: 3 nM

O=C(O)[C@]1(O)C[C@H](O)[C@@H](O)[C@@H](O)C1
IC50 [21]: 280000 nM

N#Cc1ccc2c(Oc3ccccc3OCCn3ccc(=O)[nH]c3=O)cc(F)cc2c1
IC50 [22]: 4.8 nM

O=c1c(O)c(-c2ccc(O)c(O)c2)oc2cc(O)cc(O)c12
inhibition [19]: 43.4%

C=C(C)[C@@H]1Cc2c(cc3oc(=O)ccc3c2O)O1
CC50 (C8166): > 200000 nM

CCCCC/C=C/C=C/O[C@@]12[C@@H]([C@H]3OCO[C@@]3(C(C)=O)[C@H](OC(=O)CCCC)[C@H]1C)[C@@H]1O[C@]1(CO)[C@@H](O)[C@]1(O)C(=O)C(C)=C[C@H]12
IC50 [4]: 0.9 nM
